Data: patent US20060188904A1, “Biosensors having single reactant components immobilized over single electrodes and methods of making and using thereof” (The Regents of the University of California, priority 2003, published 2006)
Where “and” joins values, the source holds several entries; their conditions need not be identical. Identical values can stand only once.

Experiments:
[1] = system: rat osteoblasts; test: Single osteoblast sensor: response time to chemical analytes; format: cell-based; settings: at the concentration printed under each value (EDTA 280 ppm, ethanol 190 ppm, peroxide 25 ppm, pyrethroids 890 ppm), preliminary results
Description: The experiments in Example 2 were conducted on mammalian cells, rat osteoblasts and neurons (18 day embryonic Wistar rat) having highly excitable cell membranes. […] A unique response of each cell type to each agent was determined. […] Here, two out of four agents are discussed. Additionally, the response of each cell type to a mixture of the four agents was determined in order to simulate the real time field conditions. The results obtained for neurons are discussed.
(§1) For example, for the experiments described herein, an experimental platform comprising a 5×5 electrode array on a substrate, a silicone chamber, and a measurement system was used. The micrograph of the fabricated electrode array on a substrate is shown in FIG. 1 with a 5×5 platinum electrode array pattern, electrode diameter of 80 μm and with a 200 μm center to center spacing. Two platinum plated leads (6 μm, thick) from each electrode terminated at two separate electrode pads. The dimensions of the electrode pads were 100 μm×120 μm. The electrode array on the substrate was coated with a permeation polyethylamine (PEI) and collagen with a volume of 200 μl (PEI, 1 mg/ml, Collagen 1X, Sigma, St. Louis, Mo.). The electrode array on the substrate with the aqueous coating of the permeation layer was incubated for about 12 hours prior to the experiment at 37 ° C. and 5% CO2.
The cells were separated and positioned over the electrodes by setting up a gradient AC field using an extracellular positioning system, comprising of a pulse generator and micromanipulators. The AC signal from the pulse generator was fed to the electrode pads of the selected electrodes using the micromanipulators. The extracellular recordings from the cells were amplified and recorded on an oscilloscope. […]
Then fast Fourier transformation (FFT) and wavelet transformation (WT) analysis were used to extract important information from the extracellular action potential (AP) for the neurons. […] Quantitative dose response curves and response times were also obtained for the single cell systems.

[2] = system: single neuron; test: Single neuron sensor: extracellular electrical response to chemical analytes (FFT/WT analysis, signature pattern vector); settings: for Percentage reduction of signal amplitudes from the detection limit to the peak concentration: 5000 ppm to detection limit; for Percentage increase in response time from peak concentration to the sensitivity limits: about 5000 ppm to detection limit; for Response time of a single neuron extracted via WT analysis: at the detection limit; for Detection limit for a single neuron: decrementing concentrations from about 5000 ppm; for Experimentally obtained detection limit (molar): single neuron
Description: The experiments in Example 2 were conducted on mammalian cells, rat osteoblasts and neurons (18 day embryonic Wistar rat) having highly excitable cell membranes. […] A unique response of each cell type to each agent was determined. […] Additionally, the response of each cell type to a mixture of the four agents was determined in order to simulate the real time field conditions.
as §1
The cells were separated and positioned over the electrodes by setting up a gradient AC field using an extracellular positioning system, comprising of a pulse generator and micromanipulators. The AC signal from the pulse generator was fed to the electrode pads of the selected electrodes using the micromanipulators. The extracellular recordings from the cells were amplified and recorded on an oscilloscope. The supply and measurement systems are integrated using general-purpose interface bus (GPIB) control and controlled through LabVIEW (National Instruments, Austin, Tex.).
Then fast Fourier transformation (FFT) and wavelet transformation (WT) analysis were used to extract important information from the extracellular action potential (AP) for the neurons. Specific spectrum power vectors (SSPVs) and the relative spectrum power values (RSPVS) were found for osteoblast. Quantitative dose response curves and response times were also obtained for the single cell systems.
Extracellular signals from individual neurons due to the action of a specific chemical analyte may be analyzed further to understand the chemical type and the cellular response relationship. Here, single neuron based sensor's response and its sensitivity is determined by statistical reconstruction and enhancement of the acquired experimental data. Each chemical was characterized by a unique SPV obtained from the integrated processing of the modified extracellular action potential in the frequency domain (FFT) as well as the time domain (WT).
Integrated signal processing yielded an SPV specific to every chemical analyte. The SPV provides unique functional data corresponding to the physiological state of a single neuron due to the action of a particular analyte at a specific concentration. Each SPV comprises of certain frequency states, which are analyte specific and having maximum relative amplitudes that are generated concurrently in the sensing cycle; these correspond to the neuron's modified stable burst rate. Extracellular signal amplitudes greater than about 50 μV are considered to be accurate measures of the cell response due to a specific chemical analyte as the magnitude of signals due to non-specific interactions and noise signals are smaller than this value.

[3] = system: single neuron; settings: estimated theoretically, literature; cited from earlier work
[4] = system: single neuron; settings: hydrogen peroxide added after ethanol, both at their detection limits
Excerpt: The detection limits for individual chemicals act as the basis for determining the concentration of the specific chemical analytes used in cascaded sensing. Addition of the first chemical analyte approaching its sensitivity limit results in the acquisition of modified extracellular potential pertaining to the specific chemical analyte. The use of the chemical analyte close to its detection limit leads to the dissipation as well as metabolization of the chemical analyte within a single sensing cycle (180 seconds) that result in the reduction of the chemical analyte concentration below the detection threshold. […] Administration of the second chemical analyte results in a specific modification based on the latter.
The concentrations of the chemicals used were at their detection limits.

Structure (SMILES)	Response time of osteoblast cells [1] [sec per]	Percentage reduction of signal amplitudes from the detection limit to the peak concentration ([2]; n=15)	Percentage increase in response time from peak concentration to the sensitivity limits ([2]; n=15)	Response time of a single neuron extracted via WT analysis ([2]; n=15)	Detection limit for a single neuron ([2]; n=15)	Percentage reduction of signal amplitude per 1000 ppm ([2]; n=15)	Experimentally obtained detection limit (molar) [2]	Lowest single neuron sensitivity, lowest concentration determined by existing methods [3]	Eigen vectors of the SPV / modified firing frequency (Example 2) ([2]; control burst rate 626 Hz, unchanged for varying concentrations, n=15) [Hz]	Frequency of firing of the neuron / eigen values of the SPV (description of FIGS. 4-7) ([2]; low and high frequency modes, hydrogen peroxide within 30 seconds of addition)	High frequency eigen vector after cascaded addition [4] [Hz]
O=C(O)CN(CCN(CC(=O)O)CC(=O)O)CC(=O)O [EDTA, ethylenediaminetetraacetic acid]	0.14	about 67%	about 1.8%	about 0.27 second	about 180 ppm	about 10.4%±0.11%	about 3.42×10^−13 M	about 15 pM	–	–	–
CCO [ethanol]	0.71	about 52%	about 1.6%	about 0.21 second	about 9 ppm	about 8.2%±0.12%	about 2.17×10^−12 M	about 25 μM	314	315 Hz and 627 Hz and 314 Hz and 626 Hz	–
OO [hydrogen peroxide]	0.42	about 38%	about 1.8%	about 0.07 second	about 19 ppm	about 7.8%±0.14%	about 2.94×10^−12 M	about 15 nM	–	–	775
